Results: ChEMBL document CHEMBL4406836, “The design of a cell-selective fowlicidin-1-derived peptide with both antimicrobial and anti-inflammatory activities” (Eur J Med Chem, 2019)
Activity calls are given as the source filed them. The calls are words filed in the database; no cut-off is given here.

Tests used:
Pseudomonas aeruginosa [1] = experiment: Antibacterial activity against multidrug-resistant Pseudomonas aeruginosa CCARM 2095 assessed as reduction in bacterial growth at 4 uM incubated for 72 hrs in presence of oxacillin by spectrophotometry; assay type: functional; conditions: CCARM 2095, 72 h
RAW264.7 [2] = experiment: Antiinflammatory activity in mouse RAW264.7 cells assessed as reduction in LPS-induced TNFalpha gene expression at 8 uM incubated for 6 hrs by qRT-PCR analysis; assay type: functional, cell-based
Staphylococcus aureus [3] = experiment: Antibacterial activity against methicillin-resistant Staphylococcus aureus CCARM 3089 assessed as reduction in bacterial growth at 8 uM incubated for 72 hrs in presence of ciprofloxacin by spectrophotometry; assay type: functional; conditions: CCARM 3089, 72 h
RAW264.7 [4] = experiment: Antiinflammatory activity in mouse RAW264.7 cells assessed as reduction in LPS-induced iNOS gene expression at 4 uM incubated for 3 hrs by qRT-PCR analysis; assay type: functional, cell-based
Staphylococcus aureus [5] = experiment: Antibacterial activity against Staphylococcus aureus KCTC 1621 assessed as reduction in bacterial growth incubated for 18 hrs by spectrophotometry based microtiter broth dilution method; assay type: functional; conditions: KCTC 1621, 18 h
Staphylococcus aureus [6] = experiment: Potency index, ratio of MIC of LL-37 to MIC of compound for antibacterial activity against methicillin-resistant Staphylococcus aureus CCARM 3090 assessed as reduction in bacterial growth incubated for 18 hrs by spectrophotometry based microtiter broth dilution method; assay type: functional
Escherichia coli [7] = experiment: Antibacterial activity against Escherichia coli KCTC 1682 assessed as reduction in bacterial growth incubated for 18 hrs in presence of 20 % human serum by spectrophotometry based microtiter broth dilution method; assay type: functional; conditions: KCTC 1682, 18 h
RAW264.7 [8] = experiment: Antiinflammatory activity in mouse RAW264.7 cells assessed as reduction in LPS-induced NO production at 4 uM incubated for 24 hrs by Griess reagent based assay relative to control; assay type: functional; conditions: RAW264.7, 24 h
[9] = Therapeutic index, ratio of MHC10 for hemolytic activity in sheep RBC assessed as minimal hemolytic concentration causing 10% hemolysis to MIC for antibacterial activity; assay type: toxicity; conditions: sheep red blood cells
Escherichia coli [10] = experiment: Antibacterial activity against Escherichia coli KCTC 1682 assessed as reduction in bacterial growth incubated for 18 hrs in presence of 150 mM NaCl by spectrophotometry based microtiter broth dilution method; assay type: functional; conditions: KCTC 1682, 18 h
Pseudomonas aeruginosa [11] = experiment: Potency index, ratio of MIC of LL-37 to MIC of compound for antibacterial activity against multidrug-resistant Pseudomonas aeruginosa CCARM 2109 assessed as reduction in bacterial growth incubated for 18 hrs by spectrophotometry based microtiter broth dilution method; assay type: functional
[12] = test system: Staphylococcus epidermidis; experiment: Antibacterial activity against Staphylococcus epidermidis KCTC 1917 assessed as reduction in bacterial growth incubated for 18 hrs by spectrophotometry based microtiter broth dilution method; assay type: functional; conditions: KCTC 1917, 18 h
Enterococcus faecium = experiment: Potency index, ratio of MIC of LL-37 to MIC of compound for antibacterial activity against vancomycin-resistant Enterococcus faecium ATCC 51559 assessed as reduction in bacterial growth incubated for 18 hrs by spectrophotometry based microtiter broth dilution method; assay type: functional
Bacillus subtilis = experiment: Antibacterial activity against Bacillus subtilis KCTC 3068 assessed as reduction in bacterial growth incubated for 18 hrs by spectrophotometry based microtiter broth dilution method; assay type: functional; conditions: KCTC 3068, 18 h
Pseudomonas aeruginosa [13] = experiment: Potency index, ratio of MIC of melittin to MIC of compound for antibacterial activity against multidrug-resistant Pseudomonas aeruginosa CCARM 2095 assessed as reduction in bacterial growth incubated for 18 hrs by spectrophotometry based microtiter broth dilution method; assay type: functional
Staphylococcus aureus [14] = experiment: Antibacterial activity against methicillin-resistant Staphylococcus aureus CCARM 3089 assessed as reduction in bacterial growth at 4 uM incubated for 72 hrs in presence of chloramphenicol by spectrophotometry; assay type: functional; conditions: CCARM 3089, 72 h
Escherichia coli [15] = experiment: Antibacterial activity against Escherichia coli KCTC 1682 assessed as reduction in bacterial growth incubated for 18 hrs in presence of 4 uM FeCl3 by spectrophotometry based microtiter broth dilution method; assay type: functional; conditions: KCTC 1682, 18 h
RAW264.7 [16] = experiment: Antiinflammatory activity in mouse RAW264.7 cells assessed as reduction in LPS-induced TNFalpha release at 8 uM preincubated for 1 hr followed by LPS-challenge and measured after 6 hrs by ELISA relative to control; assay type: functional
Staphylococcus aureus [17] = experiment: Antibacterial activity against Staphylococcus aureus KCTC 1621 assessed as reduction in bacterial growth incubated for 18 hrs in presence of 1 mM MgCl2 by spectrophotometry based microtiter broth dilution method; assay type: functional; conditions: KCTC 1621, 18 h
Staphylococcus aureus [18] = experiment: Antibacterial activity against Staphylococcus aureus KCTC 1621 assessed as reduction in bacterial growth incubated for 18 hrs in presence of […] by spectrophotometry based microtiter broth dilution method; assay type: functional; conditions: KCTC 1621, 18 h
Staphylococcus aureus [19] = experiment: Antibacterial activity against Staphylococcus aureus KCTC 1621 assessed as reduction in bacterial growth incubated for 18 hrs in presence of 20% human serum by spectrophotometry based microtiter broth dilution method; assay type: functional; conditions: KCTC 1621, 18 h
Staphylococcus aureus [20] = experiment: Potency index, ratio of MIC of melittin to MIC of compound for antibacterial activity against methicillin-resistant Staphylococcus aureus CCARM 3095 assessed as reduction in bacterial growth incubated for 18 hrs by spectrophotometry based microtiter broth dilution method; assay type: functional
Staphylococcus aureus [21] = experiment: Antibacterial activity against Staphylococcus aureus KCTC 1621 assessed as reduction in bacterial growth incubated for 18 hrs in presence of 6 uM NH4Cl by spectrophotometry based microtiter broth dilution method; assay type: functional; conditions: KCTC 1621, 18 h

Compound: CC[C@H](C)[C@H](NC(=O)[C@H](CCCCN)NC(=O)[C@H](CCC(=O)O)NC(=O)[C@H](CCCCN)NC(=O)[C@H](CO)NC(=O)[C@H](CCCCN)NC(=O)[C@H](CCCNC(=N)N)NC(=O)[C@H](Cc1ccccc1)NC(=O)[C@H](Cc1ccccc1)NC(=O)[C@H](CC(=O)O)NC(=O)CNC(=O)[C@H](CC(C)C)NC(=O)[C@@H](N)CC(C)C)C(=O)NCC(=O)N[C@@H](CCCCN)C(=O)N[C@@H](CCC(=O)O)C(=O)N[C@@H](Cc1ccccc1)C(=O)N[C@@H](CCCCN)C(=O)N[C@@H](CCCNC(=N)N)C(=O)N[C@H](C(=O)N[C@H](C(=O)N[C@@H](CCC(N)=O)C(=O)N[C@@H](CCCNC(=N)N)C(=O)N[C@H](C(=O)N[C@@H](CCCCN)C(=O)N[C@@H](CC(=O)O)C(=O)N[C@@H](Cc1ccccc1)C(=O)N[C@@H](CC(C)C)C(=O)N[C@@H](CCCNC(=N)N)C(=O)N[C@@H](CC(N)=O)C(=O)N[C@@H](CC(C)C)C(=O)N[C@H](C(=O)N1CCC[C@H]1C(=O)N[C@@H](CCCNC(=N)N)C(=O)N[C@H](C(=O)N[C@@H](CCC(=O)O)C(=O)N[C@@H](CO)C(=O)O)[C@@H](C)O)C(C)C)[C@@H](C)CC)C(C)C)[C@@H](C)CC [CATHELICIDIN]
- MIC (Pseudomonas aeruginosa [1]): 4 µM
- inhibition (RAW264.7 [2]): Active
- MIC (Staphylococcus aureus [3]): 8 µM
- inhibition (RAW264.7 [4]): Active

Compound: H-LVIRWVRAGYKLYRAIKKK-NH2
- MIC (Staphylococcus aureus [5]): 2 µM
- Ratio (Staphylococcus aureus [6]): 2 - 8
- MIC (Escherichia coli [7]): 8 µM
- inhibition at 4 µM (RAW264.7 [8]): 94.2%
- selectivity ratio [9]: 28.4
- MIC (Escherichia coli [10]): 4 µM
- Ratio (Pseudomonas aeruginosa [11]): 2 - 8
- MIC [12]: 4 µM
- Ratio (Enterococcus faecium): 2 - 8
- MIC (Bacillus subtilis): 2 µM
- Ratio (Pseudomonas aeruginosa [13]): 2 - 8
- MIC (Staphylococcus aureus [14]): 0.5 µM
- MIC (Escherichia coli [15]): 4 µM
- inhibition at 8 µM (RAW264.7 [16]): 75.2%
- MIC (Staphylococcus aureus [17]): 4 µM
- MIC (Staphylococcus aureus [18]): 4 µM
- MIC (Staphylococcus aureus [19]): 4 µM
- Ratio (Staphylococcus aureus [20]): 2 - 8
- MIC (Staphylococcus aureus [21]): 2 µM
